{"source": "patent US20080003282A1", "about": "“Antiparasitical agents and methods for treating, preventing and controlling external parasites in animals” (priority 2005, published 2008)", "key": {"[1]": {"type": "physicochemical", "description": "In Vitro Degradation Studies\nA solution containing thioamide derivative of fipronil (“TD-fipronil”) in a solution of CH3CN/H2O (50:50 v/v) and the solution was subjected to the following degradation agents: an acid (0.5 N HCl); a base (0.5 N NaOH); fluorescent light; heat (65° C.); an oxidizer (5% H2O2); and UV light. The identity of fipronil formed was confirmed via HPLC with UV detection and HPLC with diode array detection."}, "[2]": {"parameters": "species or system dogs", "settings": "dog, po, 10 mg/kg", "description": "In Vivo Degradation Study—Oral Administration\nAn oral formulation (solution) comprising 100 mg/ml of thioamide derivatives of fipronil dissolved in 60:40 propylene glycol: glycerol formal was orally administered to dogs at a dosage rate of 10 mg/kg and the concentration of fipronil in blood plasma measured at 6 hours, day 1, day 2, and day 7 and is presented below"}}, "note": "Like-named read-outs stand apart in the source and are kept apart here.", "data": [{"compound": "NC(=S)c1nn(-c2c(Cl)cc(C(F)(F)F)cc2Cl)c(N)c1[S+]([O-])C(F)(F)F", "note": "(stereo not shown) [TD-fipronil]", "values": [{"measurement": "degradation product formed", "setting": "[1]", "value": "fipronil sulfone"}, {"measurement": "stability in acid", "setting": "[1]", "value": "stable in acid"}, {"measurement": "fipronil formed", "setting": "[1]; Acid (0.5 N HCl), 4 days", "value": "being degraded in 4 days; negligible amounts"}, {"measurement": "fipronil formed", "setting": "[1]; Base (0.5 N NaOH)", "value": "no fipronil was formed"}, {"measurement": "fipronil formed", "setting": "[1]; Oxidation (5% H2O2)", "value": "no fipronil was formed"}, {"measurement": "sensitivity to light", "setting": "[1]; UV light", "value": "very sensitive to light"}, {"measurement": "in vivo degradation into fipronil judged against efficacy", "setting": "[2]", "value": "degrades into fipronil in vivo in amounts that are sufficient for efficacy against fleas and ticks"}]}]}
